# In patent US20230233533A1, “COMPOSITIONS, METHODS OF TREATING AND PREVENTING FUNGAL INFECTIONS, AND METHODS OF INHIBITING PRP8 INTEIN EXPRESSION” (Health Research, Inc., priority 2020, published 2023):
# Numbered stars: 1 amine (or outer) side, 2 acyl side, 3 side chain; on linkers, the order of the positions; unused ones are H or OH. Bridge positions count the residues as written; N and C are the ends. Square brackets hold non-standard residues; d marks the D form. Peptide text beside a SMILES is read from it. * marks the point of attachment. hTyr(3S-OH,4S-OH,3'-OSO3H) = N[C@H](C(=O)O)[C@H](O)[C@@H](O)c1ccc(O)c(OS(=O)(=O)O)c1; pTerphenylCO(4''-OnC5H11) = CCCCCOc1ccc(-c2ccc(-c3ccc(C(=O)*)cc3)cc2)cc1; Orn(4R-OH,5R-OH) = O=C([C@H](C[C@@H](O)[C@@H](O)N[*:3])N[*:1])[*:2]; hTyr(3S-OH,4S-OH) = N[C@H](C(=O)O)[C@H](O)[C@@H](O)c1ccc(O)cc1; Pro(3S-OH,4S-Me) = C[C@H]1CN[C@H](C(=O)O)[C@H]1O; X1 = CCCCCOc1ccc(-c2cc(-c3ccc(C(=O)*)cc3)no2)cc1; Gln(3R-OH) = NC(=O)C[C@@H](O)[C@H](N)C(=O)O; Hyp = O=C(O)[C@@H]1C[C@@H](O)CN1
# Assays:
# C. neoformans = assay: Sensititre YeastOne Y09 AST drug combination assay; type: cell-based, Cryptococcus neoformans; details: 6G-318S at 0.16 ug/ml, C. neoformans H99
# Protocol: Sensititre YeastOne Y09 AST assay—Fungal susceptibility to a combination of compounds was carried out using the Sensititre YeastOne Y09 AST assay kit (Thermofisher), according to the manufacturer's manual. Briefly, fungal C. neoformans cells in exponential growth phase were diluted to a final OD530 of 0.1. Then 20 μl diluted cells were further diluted into 10 ml YPD as a stock. […] The stock C. neoformans (100 μl, ˜200 cells) were dispensed into the compound-ready 96-well plate. The fungal cells (treated or with DMF) were incubated at 30° C. for 48 h. The cell cultures were visualized by naked eye. The MIC break points were determined according to manufacturer's instructions.
# in vitro = type: cell-based, human; details: human, CC50 A549
# Protocol: Cytotoxicity—Cytotoxicity assays were carried out using human lung carcinoma cell line A549, as described (Chen et al., “Selective Inhibition of the West Nile Virus Methyltransferase by Nucleoside Analogs,” Antiviral Research 97(3):232-239 (2013), which is hereby incorporated by reference in its entirety). Briefly, the A549 cells (5×10^3) were incubated with/without compounds in a 96-well plate at 37° C. for 48 h. Cell viability was determined using the MTT assay (ATCC) as was described previously (Chen et al., “Selective Inhibition of the West Nile Virus Methyltransferase by Nucleoside Analogs,” Antiviral Research 97(3):232-239 (2013) and Brecher et al., “Identification and Characterization of Novel Broad-Spectrum Inhibitors of the Flavivirus Methyltransferase,” ACS Infectious Diseases 1(8):340-349 (2015), both of which are hereby incorporated by reference in their entirety). N=3.
# Cytotoxicity—Cytotoxicity assays were carried out using human lung carcinoma cell line A549, as described. Chen et al., “Selective Inhibition of the West Nile Virus Methyltransferase by Nucleoside Analogs,” Antiviral Res. 97:232-9 (2013), which is hereby incorporated by reference in its entirety. Briefly, the A549 cells (5×10^3) were incubated with/without compounds in a 96-well plate at 37° C. for 48 h. Cell viability was determined using the MTT assay (ATCC) as was described previously (Chen et al., “Selective Inhibition of the West Nile Virus Methyltransferase by Nucleoside Analogs,” Antiviral Research 97(3):232-239 (2013) and Brecher et al., “Identification and Characterization of Novel Broad-Spectrum Inhibitors of the Flavivirus Methyltransferase,” ACS Infectious Diseases 1(8):340-349 (2015), both of which are hereby incorporated by reference in their entirety). N=3.
# Prp8 intein [1] = molecular target: T1, Prp8 intein (Cryptococcus gattii, UniProt E6R027); assay: Split Renilla luciferase RLuc-Prp8 intein splicing assay; type: biochemical; details: split Renilla luciferase RLuc-Prp8 intein splicing
# Protocol: Split luciferase Prp8 intein splicing assay—The split RLuc-Prp8 fusion protein was carried out and monitored using a Veritas luminometer, as described previously.
# Split luciferase RLuc-Prp8 and NnLuc-Prp8 intein splicing assays—The split RLuc-Prp8 intein splicing assay was carried out and monitored using a Veritas luminometer, as described previously. […] Microbes. Infect. […] For NnLuc-Prp8 intein splicing assay, the NnLuc-prp8 is diluted in assay buffer (50 mM Tris, 0.1% BSA, 1 mM EDTA, pH 7.4) and 50 ul is added to each well in 96 well black plates. Test molecules or the solvent was added and incubated for 30 to 60 min. A splicing inducer TCEP (50 ul, 100 μM) is added and incubated for 24 h. Luciferase substrate (Furimazine, 25 ul 1:10,000 diluted) is added and luminescence is read using a luminescence reader. IC50 is calculated using Graphpad prism.
# Prp8 intein [2] = molecular target: T1, Prp8 intein; assay: Split GFP-Prp8i intein splicing assay; type: biochemical; details: split GFP-Prp8 intein splicing
# Protocol: Cloning, expression and purfication—The split GFP-Prp8i was constructed using a mega-PCR mutagenesis approach. […] After digestion with Dpn I restriction enzyme, the PCR product was transformed into DH5α Escherichia coli. Clones were verified by plasmid DNA sequencing. The expression, refolding and purification of the GFP-Prp8i fusion protein were carried out as described previously.
# […] Then 100 μl 2×TCEP was added to a final concentration of 20 μM. The reactions were incubated at 25° C. overnight. […] Two readings were taken, one prior to addition of TCEP (I0) and one after incubation overnight with TCEP (If). Fluorescence/luminescence differences (ΔFluorescence or ΔLuminescence) were defined as If−I0 for each well. […] DMF control served as 100% splicing activity.
# Split GFP-Prp8 and CJGFP-Prp8 intein splicing assays—Using black and clear bottom 96-well plates, the DPNB-treated, -refolded and -concentrated GFP-Prp8 or CfGFP-Prp8 fusion protein (0.5 μM) was incubated with compounds or Dimethylsulfoxide (DMSO) solvent control for 30 min at 25° C. in a 100 μl intein splicing buffer (20 mM Bis-tris propane, 0.5 M NaCl, 0.5 M arginine, 1 mM EDTA, and 0.05% CHAPS). Then 100 μl 2×TCEP was added to a final concentration of 20 μM. The reactions were incubated at 25° C. overnight. […] Two readings were taken, one prior to addition of TCEP (I0) and one after incubation overnight with TCEP (If). Fluorescence/luminescence differences (ΔFluorescence or ΔLuminescence) were defined as If−I0 for each well. […] DMSO control served as 100% splicing activity.
# C. neoformans H99 strain = assay: Fungal susceptibility test, broth microdilution MIC; type: cell-based, Cryptococcus neoformans; details: Cryptococcus neoformans, H99STRAIN; C. neoformans H99, microbroth dilution; read-out: MIC H99
# Protocol: Fungal susceptibility test—The fungal susceptibility test was carried out with a compound concentration series as described. […] The broth microdilution method was used to determine the compound MIC values against C. neoformans.
# Fungal susceptibility test—The fungal susceptibility test was carried out with a compound concentration series as described. […] Microbes. Infect. […] The broth microdilution method was used to determine the compound MIC values against C. neoformans.
# T1 sequence (E6R027 entry or part of it): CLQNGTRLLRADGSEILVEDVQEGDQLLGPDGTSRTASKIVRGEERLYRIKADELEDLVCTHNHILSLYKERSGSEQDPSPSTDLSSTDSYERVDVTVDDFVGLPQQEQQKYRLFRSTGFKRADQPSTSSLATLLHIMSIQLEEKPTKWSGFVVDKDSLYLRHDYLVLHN
Structure (SMILES),reduction of MIC of known antifungal on addition of 6G-318S (C. neoformans),CC50 at 48 h (in vitro),IC50 (Prp8 intein [1]),IC50 (Prp8 intein [2]),MIC (C. neoformans H99 strain)
"CCCCCOc1ccc(-c2ccc(-c3ccc(C(=O)N[C@H]4C[C@@H](O)[C@@H](O)NC(=O)[C@@H]5[C@@H](O)[C@@H](C)CN5C(=O)[C@H]([C@@H](C)O)NC(=O)[C@H]([C@H](O)[C@@H](O)c5ccc(O)cc5)NC(=O)[C@@H]5C[C@@H](O)CN5C(=O)[C@H]([C@@H](C)O)NC4=O)cc3)cc2)cc1 [AND, Anidulafungin] ({pTerphenylCO(4''-OnC5H11)}-[Orn(4R-OH,5R-OH)]T[Hyp][hTyr(3S-OH,4S-OH)]T[Pro(3S-OH,4S-Me)]; lactam 1-C)",did not change,,,,
"CC[C@H](C)C[C@H](C)CCCCCCCCC(=O)N[C@H]1C[C@@H](O)[C@@H](NCCN)NC(=O)[C@@H]2[C@@H](O)CCN2C(=O)[C@H]([C@H](O)CCN)NC(=O)[C@H]([C@H](O)[C@@H](O)c2ccc(O)cc2)NC(=O)[C@@H]2C[C@@H](O)CN2C(=O)[C@H]([C@@H](C)O)NC1=O [CAS, Caspofungin]",did not change,,,,
"OC(Cn1cncn1)(Cn1cncn1)c1ccc(F)cc1F [FZ, fluconazole]",did not change,,,,
"O=C(Nc1ccc(F)cc1F)c1nnsc1Sc1ccc(Cl)cc1 [JMX0569, 5-((4-Chlorophenyl)thio)-N-(2,4-difluorophenyl)-1,2,3-thiadiazole-4-carboxamide]",,186 µM,36.2 µM,> 50 µM,> 100 µM
"O=C(Nc1ccc(Cl)cc1)c1nnsc1Sc1ccc(Cl)cc1 [JMX0570, N-(4-Chlorophenyl)-5-((4-chlorophenyl)thio)-1,2,3-thiadiazole-4-carboxamide]",,83.7 µM,21.6 µM,38.7 µM,> 100 µM
"O=C(Nc1ccc(Cl)cc1)c1nnsc1S(=O)(=O)c1ccc(Cl)cc1 [JMX0571, N-(4-Chlorophenyl)-5-((4-chlorophenyl)sulfonyl)-1,2,3-thiadiazole-4-carboxamide]",,33.8 µM,12.6 µM,1.8 µM,0.39 µM
"O=C(NCc1ccc(F)cc1)c1nnsc1Sc1ccc(Cl)cc1 [JMX0573, 5-((4-Chlorophenyl)thio)-N-(4-fluorobenzyl)-1,2,3-thiadiazole-4-carboxamide]",,282 µM,5.5 µM,> 50 µM,> 100 µM
"O=C(NCc1ccc(F)cc1)c1nnsc1S(=O)(=O)c1ccc(Cl)cc1 [JMX0574, 5-((4-Chlorophenyl)sulfonyl)-N-(4-fluorobenzyl)-1,2,3-thiadiazole-4-carboxamide]",,21.5 µM,59.1 µM,1.6 µM,0.78 µM
"O=C(Nc1ccc(C(F)(F)F)cc1)c1nnsc1Sc1ccc(Cl)cc1 [JMX0575, 5-((4-Chlorophenyl)thio)-N-(4-(trifluoromethyl)phenyl)-1,2,3-thiadiazole-4-carboxamide]",,271 µM,21.5 µM,> 50 µM,> 100 µM
"O=C(Nc1ccc(C(F)(F)F)cc1)c1nnsc1S(=O)(=O)c1ccc(Cl)cc1 [JMX0576, 5-((4-Chlorophenyl)sulfonyl)-N-(4-(trifluoromethyl)phenyl)-1,2,3-thiadiazole-4-carboxamide]",,40.3 µM,11.9 µM,0.9 µM,0.78 µM
"O=C(Nc1ccc(F)cc1)c1nnc(Sc2ccc(Cl)cc2)s1 [JMX0584, 5-((4-chlorophenyl)thio)-N-(4-fluorophenyl)-1,3,4-thiadiazole-2-carboxamide]",,> 150 µM,11 µM,> 50 µM,> 100 µM
"O=C(Nc1ccc(F)cc1)c1nnc(S(=O)(=O)c2ccc(Cl)cc2)s1 [JMX0585-1, 5-((4-chlorophenyl)sulfonyl)-N-(4-fluorophenyl)-1,3,4-thiadiazole-2-carboxamide]",,26 µM,19.4 µM,5.7 µM,3.12 µM
"O=C(Nc1ccc(F)cc1)c1nnc([S+]([O-])c2ccc(Cl)cc2)s1 (stereo not drawn) [JMX0585-2, 5-((4-chlorophenyl)sulfinyl)-N-(4-fluorophenyl)-1,3,4-thiadiazole-2-carboxamide]",,28.5 µM,20.9 µM,4.5 µM,0.097 µM
"CCCCCOc1ccc(-c2cc(-c3ccc(C(=O)N[C@H]4C[C@@H](O)[C@@H](O)NC(=O)[C@@H]5[C@@H](O)[C@@H](C)CN5C(=O)[C@H]([C@H](O)CC(N)=O)NC(=O)[C@H]([C@H](O)[C@@H](O)c5ccc(O)c(OS(=O)(=O)O)c5)NC(=O)[C@@H]5C[C@@H](O)CN5C(=O)[C@H]([C@@H](C)O)NC4=O)cc3)no2)cc1 [MF, Micafungin] (X1-[Orn(4R-OH,5R-OH)]T[Hyp][hTyr(3S-OH,4S-OH,3'-OSO3H)][Gln(3R-OH)][Pro(3S-OH,4S-Me)]; lactam 1-C)",did not change,,,,
"CC[C@@H]([C@H](C)O)n1ncn(-c2ccc(N3CCN(c4ccc(OC[C@@H]5CO[C@@](Cn6cncn6)(c6ccc(F)cc6F)C5)cc4)CC3)cc2)c1=O [PZ, Posaconazole]",did not change,,,,
